Reference: US20100204149A1, “USE OF OCTREOTIDE AS A THERAPEUTIC AGENT” (priority 2007, published 2010)

Tested on: drug-resistant Mycobacterium tuberculosis
Details: 5 micrograms per ml

**Q.** How did the “% inhibition” value turn out when `C[C@@H](O)[C@@H]1NC(=O)[C@H](CCCCN)NC(=O)[C@@H](Cc2c[nH]c3ccccc23)NC(=O)[C@H](Cc2ccccc2)NC(=O)[C@@H](NC(=O)[C@H](N)Cc2ccccc2)CSSC[C@@H](C(=O)N[C@H](CO)[C@@H](C)O)NC1=O` [Octreotide, H-D-Phe-Cys-Phe-D-Trp-Lys-Thr-Cys-L-threoninol] was run?
**A.** 100.0%
